In the CheMixHub ionic liquid set:
Values joined by “and” are separate entries in the source; they are usually repeats but may differ in a detail not shown here. Identical values can stand only once.

Experiment: xn = mol fraction of the nth substance listed
Settings: for viscosity: 100 kPa; for electrical conductivity: 101 kPa

CC(C)C[C@H](N)C(=O)O + CCCC[n+]1ccn(C)c1.F[B-](F)(F)F + O
viscosity [mPa·s]
Settings | 293.15 K | 298.15 K | 303.15 K | 308.15 K | 313.15 K | 318.15 K
x1 = 0.0002738, x2 = 0 | 1.013 | 0.9 | 0.807 | 0.729 | 0.663 | 0.605
x1 = 0.0002786, x2 = 0.0003728 | 1.044 | 0.93 | 0.848 | 0.763 | 0.705 | 0.65
x1 = 0.0002797, x2 = 0.0007255 | 1.076 | 0.964 | 0.881 | 0.802 | 0.749 | 0.694
x1 = 0.0002864, x2 = 0.001099 | 1.109 | 0.998 | 0.919 | 0.845 | 0.794 | 0.74
x1 = 0.0004577, x2 = 0.0007254 | 1.081 | 0.97 | 0.887 | 0.808 | 0.754 | 0.698
x1 = 0.0004593, x2 = 0 | 1.017 | 0.905 | 0.811 | 0.733 | 0.667 | 0.608
x1 = 0.0004597, x2 = 0.001099 | 1.115 | 1.004 | 0.925 | 0.85 | 0.8 | 0.746
x1 = 0.0004649, x2 = 0.0003727 | 1.049 | 0.935 | 0.852 | 0.768 | 0.709 | 0.654
x1 = 0.0006294, x2 = 0.0003726 | 1.054 | 0.94 | 0.857 | 0.772 | 0.714 | 0.659
x1 = 0.0006321, x2 = 0 | 1.022 | 0.909 | 0.815 | 0.736 | 0.67 | 0.612
x1 = 0.0006374, x2 = 0.0007252 | 1.086 | 0.975 | 0.892 | 0.812 | 0.759 | 0.704
x1 = 0.0006474, x2 = 0.001099 | 1.121 | 1.01 | 0.931 | 0.856 | 0.805 | 0.751
x1 = 0.0008066, x2 = 0 | 1.026 | 0.913 | 0.819 | 0.74 | 0.674 | 0.616
x1 = 0.0008173, x2 = 0.0003726 | 1.059 | 0.945 | 0.862 | 0.777 | 0.718 | 0.663
x1 = 0.0008279, x2 = 0.0007251 | 1.092 | 0.98 | 0.897 | 0.817 | 0.764 | 0.708
x1 = 0.0008314, x2 = 0.001099 | 1.127 | 1.016 | 0.936 | 0.861 | 0.81 | 0.756
x1 = 0.0009955, x2 = 0 | 1.031 | 0.917 | 0.823 | 0.744 | 0.678 | 0.619
x1 = 0.001003, x2 = 0.0003725 | 1.064 | 0.949 | 0.866 | 0.781 | 0.722 | 0.667
x1 = 0.001004, x2 = 0.000725 | 1.097 | 0.985 | 0.902 | 0.822 | 0.768 | 0.712
x1 = 0.00101, x2 = 0.001099 | 1.132 | 1.021 | 0.941 | 0.866 | 0.815 | 0.761
x1 = 0.001168, x2 = 0 | 1.035 | 0.921 | 0.826 | 0.747 | 0.681 | 0.622
x1 = 0.001172, x2 = 0.0007248 | 1.102 | 0.99 | 0.906 | 0.826 | 0.772 | 0.716
x1 = 0.001177, x2 = 0.0003724 | 1.069 | 0.954 | 0.871 | 0.785 | 0.726 | 0.671
x1 = 0.001183, x2 = 0.001099 | 1.138 | 1.026 | 0.946 | 0.871 | 0.82 | 0.766
x1 = 0.00135, x2 = 0.0003724 | 1.074 | 0.959 | 0.875 | 0.789 | 0.73 | 0.675
x1 = 0.001357, x2 = 0 | 1.04 | 0.925 | 0.83 | 0.751 | 0.684 | 0.625
x1 = 0.001369, x2 = 0.001098 | 1.144 | 1.031 | 0.951 | 0.876 | 0.825 | 0.771
x1 = 0.00137, x2 = 0.0007247 | 1.108 | 0.995 | 0.911 | 0.831 | 0.777 | 0.721
x1 = 0.001535, x2 = 0 | 1.044 | 0.929 | 0.834 | 0.755 | 0.688 | 0.629
x1 = 0.001541, x2 = 0.0003723 | 1.08 | 0.963 | 0.88 | 0.794 | 0.734 | 0.679
x1 = 0.001554, x2 = 0.001098 | 1.15 | 1.037 | 0.957 | 0.881 | 0.83 | 0.776
x1 = 0.001557, x2 = 0.0007246 | 1.113 | 0.999 | 0.915 | 0.835 | 0.781 | 0.725
x1 = 0.00172, x2 = 0 | 1.048 | 0.933 | 0.838 | 0.758 | 0.691 | 0.632
x1 = 0.00172, x2 = 0.0003722 | 1.085 | 0.968 | 0.884 | 0.797 | 0.738 | 0.682
x1 = 0.00172, x2 = 0.0007244 | 1.117 | 1.003 | 0.92 | 0.839 | 0.785 | 0.729
x1 = 0.001727, x2 = 0.001098 | 1.156 | 1.042 | 0.962 | 0.886 | 0.835 | 0.781

C[C@@H](O)[C@H](N)C(=O)O + CCCCCCCCCCCCCCCC[n+]1ccccc1.[Cl-] + O
308.15 K
Settings | electrical conductivity [S/m]
x1 = 2.018e-05, x2 = 0 | 0.000218
x1 = 0.0002, x2 = 0 | 7.7e-05
x1 = 0.0009182, x2 = 0 | 0.000219

CCOCC[n+]1ccn(C)c1.C[C@@H](O)[C@H](N)C(=O)[O-] + O
Settings | viscosity
298.15 K, x1 = 0.619 | 1040 mPa·s
313.15 K, x1 = 0.3647 | 245 mPa·s
323.15 K, x1 = 0.3158 | 118.5 mPa·s
323.15 K, x1 = 0.3647 | 125.5 mPa·s
328.15 K, x1 = 0.3158 | 96.1 mPa·s and 99.5 mPa·s
328.15 K, x1 = 0.5081 | 106 mPa·s
328.15 K, x1 = 1 | 115.4 mPa·s

F[B-](F)(F)F.[Li+] + CCCC[n+]1ccn(C)c1.[I-]
electrical conductivity [S/m]
Settings | 298.15 K | 308.15 K | 323.15 K
x1 = 0.1 | – | 0.0454 | –
x1 = 0.2 | 0.0449 | – | 0.079

CC(C)[C@H](N)C(=O)O + CCCCCCCCCCCCCCCC[n+]1ccccc1.O=C([O-])C(O)c1ccccc1 + O
Settings | electrical conductivity [S/m]
313.15 K, x2 = 0, x1 = 0.001799 | 0.0016
